Source: patent publication US9346849B2, “Amino sugar-bound anti-cancerous noble metal complex” (NATIONAL UNIVERSITY CORPORATION NARA INSTITUTE OF SCIENCE …, priority 2012, dated 2016)
pIC50: −log10 of the molar value.

Tests used:
Type in all cases: cell-based
Panc-1 = test: Anticancer activity test (MTT viability), pancreatic cancer cell line Panc-1; conditions: for pIC50: Panc-1 (n=4), drug incubation 48 hours, MTT
Protocol: 1. A pancreatic cancer cell line (Panc-1) was seeded in 96-well plates in duplicate at 1×10^3 cells/100 μL/well (a medium (RPMI1640) containing 10% FBS was used) and incubated at 37° C. and 5% CO2 for 68 hours.
(§1) 2. A preparation made by mixing a drug (CDDP ([PtCl2(NH3)2]) or Pd-Oqn) with the medium was dispensed into each well, and thereafter incubated at 37° C. and 5% CO2 for 48 hours.
(§2) 3. MTT was dispensed into each well at 10 μL/well, followed by incubation at 37° C. for 4 hours. Thereafter, the absorbance at 450 nm was measured with a microplate reader, and the viability was calculated.

MKN28 = test: Anticancer activity test (MTT viability), gastric cancer cell line MKN28; conditions: MKN28 (n=4), drug incubation 48 hours
Protocol: (§3) 1. Gastric cancer cell lines MKN28 and MKN45 were individually seeded in 96-well plates in duplicate at 1×10^3 cells/100 μL/well (a medium (RPMI1640) containing 10% FBS was used) and incubated at 37° C. and 5% CO2 for 68 hours.
as §1, §2

MKN45 = test: Anticancer activity test (MTT viability), gastric cancer cell line MKN45; conditions: for pIC50: MKN45 (n=4), drug incubation 48 hours, MTT
Protocol: as §3, §1, §2

Row | anticancer activity (IC50) relative to cisplatin (Panc-1; Panc-1, versus cisplatin) | anticancer activity (IC50) relative to cisplatin (MKN45; stomach cancer cells MKN45 and MKN28 together, versus cisplatin) | Compound | pIC50 (Panc-1) | pIC50 (MKN28) | pIC50 (MKN45)
1 |  |  | N.N.[Cl][Pt][Cl] [CDDP, [PtCl2(NH3)2], reference compound] | 3.91 | 4.06 | 4.55
2 | about two times higher | about two to five times higher | [Pd(GlcN=Oqn)Cl] [Pd-Oqn] | 4.20 | 4.76 | 4.93
